In US20240287138A1, “CYCLIC PEPTIDES FOR INHIBITING TNF RECEPTOR 1 ACTIVITY” (Merck Sharp & Dohme LLC, priority 2023, published 2024):
Numbered stars: 1 amine (or outer) side, 2 acyl side, 3 side chain; on linkers, the order of the positions; unused ones are H or OH. Bridge positions count the residues as written; N and C are the ends. Square brackets hold non-standard residues; d marks the D form. Peptide text beside a SMILES is read from it. Trp(βS-Me,7-OMe) = COc1cccc2c([C@H](C)[C@H](N)C(=O)O)c[nH]c12; Trp(7-CN) = N#Cc1cccc2c(C[C@H](N)C(=O)O)c[nH]c12; Trp(7-Cl) = N[C@@H](Cc1c[nH]c2c(Cl)cccc12)C(=O)O; Phe(3-CONH2) = NC(=O)c1cccc(C[C@H](N)C(=O)O)c1; Phe(4-CONH2) = NC(=O)c1ccc(C[C@H](N)C(=O)O)cc1; Phe(4-COOH) = N[C@@H](Cc1ccc(C(=O)O)cc1)C(=O)O; Trp(7-aza) = N[C@@H](Cc1c[nH]c2ncccc12)C(=O)O; Pip(5R-OH) = O=C(O)[C@@H]1CC[C@@H](O)CN1; X1 = O=C([C@@H]1CC[C@H](N[*:1])C1)[*:2]; Gly(Nα-CH2CH2CONH2) = NC(=O)CCNCC(=O)O; 1Nal = N[C@@H](Cc1cccc2ccccc12)C(=O)O; 2Nal = N[C@@H](Cc1ccc2ccccc2c1)C(=O)O; Pip(4-aza) = O=C(O)[C@@H]1CNCCN1; hPhe = N[C@@H](CCc1ccccc1)C(=O)O; 4Pal = N[C@@H](Cc1ccncc1)C(=O)O; NMeE = CN[C@@H](CCC(=O)O)C(=O)O; dHyp = O=C(O)[C@H]1C[C@H](O)CN1; aThr = C[C@H](O)[C@H](N)C(=O)O; Ahp(2) = CCCCC[C@H](N)C(=O)O; αMeS = C[C@](N)(CO)C(=O)O; NMeA = CN[C@@H](C)C(=O)O; Nle = CCCC[C@H](N)C(=O)O; Sar = CNCC(=O)O

Tests used:
[1] = target: T1, human TNFR1 extracellular domain (ECD) protein (Homo sapiens, UniProt P19438); experiment: SPR binding affinity to captured human TNFR1 ECD
T1 construct: HRV 3C protease cleavage site (C); 6His (C, cleaved yes); made in house; host or cells: Sf21 insect cells (baculovirus), secreted
T1 sequence (P19438 30-211): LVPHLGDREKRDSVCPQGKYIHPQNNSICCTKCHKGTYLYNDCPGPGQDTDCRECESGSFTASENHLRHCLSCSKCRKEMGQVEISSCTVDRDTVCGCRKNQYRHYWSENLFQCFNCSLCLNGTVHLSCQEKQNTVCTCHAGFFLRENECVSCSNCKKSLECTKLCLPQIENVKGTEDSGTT
Outline: (§1)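 Read-out: kon, koff and derived affinity from SPR response units. Human TNFR1 and TNFR2 ECD, Avi-tag biotinylated with BirA, captured on a streptavidin surface; peptides injected under laminar flow in HEPES-saline with EDTA, P20 and 2% DMSO.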

[2] = target: T2, human TNFR2 ECD protein (Homo sapiens, UniProt P20333); experiment: SPR off-target binding (selectivity) to human TNFR2 ECD
T2 construct: HRV 3C protease cleavage site (C); 6His (C, cleaved yes); made in house; host or cells: Sf21 insect cells (baculovirus), secreted
T2 sequence (P20333 23-257): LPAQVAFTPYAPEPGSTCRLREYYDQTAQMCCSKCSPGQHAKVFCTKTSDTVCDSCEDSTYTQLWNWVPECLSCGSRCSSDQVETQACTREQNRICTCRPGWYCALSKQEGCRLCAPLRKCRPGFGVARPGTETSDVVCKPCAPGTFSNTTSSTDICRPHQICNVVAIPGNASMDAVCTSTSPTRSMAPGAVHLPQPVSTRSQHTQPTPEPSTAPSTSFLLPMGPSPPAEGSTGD
Outline: as §1

[3] = target: T3, TNFα-induced NF-κB signal transduction pathway (TNFR1 signaling) in THP-1 cells (Homo sapiens, UniProt P19438); experiment: THP-1 Lucia NF-κB reporter cell assay, inhibition of TNFα-induced NF-κB signaling; format: cell-based; conditions: THP-1 NF-κB Lucia reporter cells, 10 ng/mL TNFα, 16-18 h, secreted luciferase; read-out: THP-1 IC50
T3 sequence (P19438 30-455): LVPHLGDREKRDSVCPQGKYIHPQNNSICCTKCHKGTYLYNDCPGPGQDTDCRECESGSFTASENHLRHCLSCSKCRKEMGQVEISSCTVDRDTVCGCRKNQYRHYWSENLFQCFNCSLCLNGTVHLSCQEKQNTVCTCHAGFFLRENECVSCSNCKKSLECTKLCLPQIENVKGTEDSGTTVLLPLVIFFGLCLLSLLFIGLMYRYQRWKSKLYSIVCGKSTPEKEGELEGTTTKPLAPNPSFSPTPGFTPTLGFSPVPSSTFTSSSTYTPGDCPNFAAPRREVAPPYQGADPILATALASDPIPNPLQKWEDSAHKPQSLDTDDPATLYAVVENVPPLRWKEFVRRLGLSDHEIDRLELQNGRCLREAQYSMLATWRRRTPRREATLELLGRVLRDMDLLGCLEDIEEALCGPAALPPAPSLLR
Outline: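 THP-1 Lucia NF-κB cells, 20k/well, no selection antibiotics; peptide pre-inc 1 h 37 °C; + recombinant human TNFα 10 ng/mL final; o.n.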

Compound	Kd [1] [nM]	Kd [2] [nM]	IC50 [3] [nM]
CCCCC[C@@H]1NC(=O)[C@@H]2CC[C@@H](C2)NC(=O)[C@H]([C@@H](C)c2c[nH]c3c(OC)cccc23)NC(=O)CN(C)C(=O)[C@H](Cc2cccc(C(N)=O)c2)NC(=O)[C@H](Cc2ccc(C(N)=O)cc2)NC(=O)[C@](C)(CO)NC(=O)[C@H](Cc2c[nH]c3c(C#N)cccc23)NC(=O)[C@H](Cc2ccc(C(=O)O)cc2)NC(=O)[C@H](CC(N)=O)NC(=O)CN(CCC(N)=O)C(=O)[C@H](Cc2c[nH]c3ccccc23)NC(=O)[C@@H]2CNCCN2C(=O)[C@H](Cc2ccncc2)NC1=O [SEQ ID NO. 10] (cyclo([4Pal][Pip(4-aza)]W[Gly(Nα-CH2CH2CONH2)]N[Phe(4-COOH)][Trp(7-CN)][αMeS][Phe(4-CONH2)][Phe(3-CONH2)][Sar][Trp(βS-Me,7-OMe)][X1][Ahp(2)]))	0.08	> 1000	0.8
C[C@H]1C(=O)N[C@@H](CC(N)=O)C(=O)N[C@@H](Cc2ccncc2)C(=O)N[C@@H](Cc2ccc3ccccc3c2)C(=O)N[C@@](C)(CO)C(=O)N[C@@H](Cc2ccc(C(=O)O)cc2)C(=O)N[C@@H](Cc2ccc(O)cc2)C(=O)N(C)CC(=O)N[C@@H](Cc2c[nH]c3ccccc23)C(=O)N[C@H](C(N)=O)CSCC(=O)N[C@@H](CCCCN)C(=O)N[C@@H](Cc2ccncc2)C(=O)N[C@@H](CO)C(=O)N[C@@H](Cc2cccc3ccccc23)C(=O)N1C [SEQ ID NO. 227] ({CH2CO}-K[4Pal]S[1Nal][NMeA]N[4Pal][2Nal][αMeS][Phe(4-COOH)]Y[Sar]WC-NH2; thioether N-14)	2.3	> 1000	13.5
CCCC[C@@H]1NC(=O)[C@@H]2CC[C@@H](C2)NC(=O)[C@H]([C@@H](C)c2c[nH]c3c(OC)cccc23)NC(=O)CN(C)C(=O)[C@H](Cc2ccc(C(=O)O)cc2)NC(=O)[C@H](Cc2ccc(C(N)=O)cc2)NC(=O)[C@](C)(CO)NC(=O)[C@H](Cc2c[nH]c3c(Cl)cccc23)NC(=O)[C@H](Cc2ccncc2)NC(=O)[C@H]([C@H](C)O)NC(=O)[C@H]2C[C@H](O)CN2C(=O)[C@H](Cc2c[nH]c3ccccc23)NC(=O)[C@@H]2CC[C@@H](O)CN2C(=O)[C@H](Cc2ccncc2)NC1=O [SEQ ID NO. 187] (cyclo([4Pal][Trp(7-Cl)][αMeS][Phe(4-CONH2)][Phe(4-COOH)][Sar][Trp(βS-Me,7-OMe)][X1][Nle][4Pal][Pip(5R-OH)]W[dHyp][aThr]))	0.04	> 1000	0.5
CCCC[C@@H]1NC(=O)CSC[C@@H](C(N)=O)NC(=O)[C@H]([C@@H](C)c2c[nH]c3c(OC)cccc23)NC(=O)CN(C)C(=O)[C@H](Cc2ccc(O)cc2)NC(=O)[C@H](Cc2ccc(C(=O)O)cc2)NC(=O)[C@](C)(CO)NC(=O)[C@H](Cc2c[nH]c3c(Cl)cccc23)NC(=O)[C@H](Cc2ccncc2)NC(=O)[C@H](CC(N)=O)NC(=O)[C@H](CCC(=O)O)N(C)C(=O)[C@H](Cc2c[nH]c3ncccc23)NC(=O)[C@@H]2CNCCN2C(=O)[C@H](CCc2ccccc2)NC1=O [SEQ ID NO. 172] ({CH2CO}-[Nle][hPhe][Pip(4-aza)][Trp(7-aza)][NMeE]N[4Pal][Trp(7-Cl)][αMeS][Phe(4-COOH)]Y[Sar][Trp(βS-Me,7-OMe)]C-NH2; thioether N-14)	0.2	> 1000	3.9
CCCC[C@@H]1NC(=O)[C@@H]2CC[C@@H](C2)NC(=O)[C@H]([C@@H](C)c2c[nH]c3c(OC)cccc23)NC(=O)CN(C)C(=O)[C@H](Cc2ccc(C(N)=O)cc2)NC(=O)[C@H](Cc2ccc(C(N)=O)cc2)NC(=O)[C@](C)(CO)NC(=O)[C@H](Cc2c[nH]c3c(C#N)cccc23)NC(=O)[C@H](Cc2ccc(C(=O)O)cc2)NC(=O)[C@H]([C@H](C)O)NC(=O)[C@H]2C[C@H](O)CN2C(=O)[C@H](Cc2c[nH]c3ncccc23)NC(=O)[C@@H]2CC[C@@H](O)CN2C(=O)[C@H](Cc2ccncc2)NC1=O [SEQ ID NO. 122] (cyclo([4Pal][Pip(5R-OH)][Trp(7-aza)][dHyp][aThr][Phe(4-COOH)][Trp(7-CN)][αMeS][Phe(4-CONH2)][Phe(4-CONH2)][Sar][Trp(βS-Me,7-OMe)][X1][Nle]))	0.04	> 1000	0.9
